# Experimental data taken from patent EP2977452A2, “METHODS OF TREATMENT AND PREVENTION OF NEURODEGENERATIVE DISEASES AND DISORDERS” (THOMAS JEFFERSON UNIVERSITY, priority 2007, dated 2008).
# “Also recorded” adds a separate entry of the source.
# Assays:
# Assay type in all cases: in vivo
# Abeta-42 = Abeta-42 accumulation in brain of DM/HC pig model (IHC); details: DM/HC pigs
# Protocol: (§1) Animal model: A diabetic/diabetic hypercholestrolemic pig model (DM/HC) was developed that mimics human-like atherosclerosis. Farm pigs weighing 25-30 kg and aged ∼4 months were made diabetic with a single intravenous injection of 125 mg/kg of streptozotocin (Sicor Pharmaceuticals, Irvine, CA). After stabilization for 1-2 weeks, the animals with elevated levels of plasma glucose (>150 mg/dl) were fed with atherogenic (high-fat) diet as shown in Table 1 (Animal Specialties, Quakertown, PA) to achieve a cholesterol level of approximately 250-800 mg/dl. Table 1. Diet for 2.0% cholesterol diet the components are:
# (§2) At one month after stabilization of choleresterol at 250-800mg/dl, the animals were randomized into two experimental groups, DM/HC (hyperglycemia and hypercholesterolemia) group with no treatment and treatment group (10 mg/kg/day of SB-480848, also referred to as 1-(N-(2-(diethylamino)ethyl)-N-(4-(4-trifluoromethylphenyl)benzyl)-aminocarbonylmethyl)-2-(4-fluorobenzyl)thio-5,6-trimethylenepyrimidin-4-one). The animals were sacrificed at 6-month after the randomization. The animal protocol has been approved by the Institutional Animal Care and Use Committee of University of Pennsylvania.
# (§3) Two diabetic/hypercholesterolemic groups were evaluated: 1. DM/HC group and 2. DM/HC animals receiving Lp-PLA2 inhibitors. The experiments included: the control group (DM/HC group - 17 pigs) and the experimental group (DM/HC animals receiving LP-PLA2 inhibitors - 20 pigs). In addition blood cholesterol levels were maintained between 300 and 800 mg/dl in experimental animals, this range having been determined to provide a better test model. Blood cholesterol levels were monitored in all animals on a bimonthly basis, as shown in Table 4 and adjustments were made to the fat content of the feed accordingly, as shown in Table 2. The cholesterol and lard percent were in the range of 0.5-2% and 10-25%, respectively, and all animals received feed that contained cholesterol and lard concentration within that range. Blood samples were obtained at baseline, 1 month, 3 months, and 6 months. Less than 1 ml/kg of blood were obtained each time. At the bimonthly blood cholesterol levels tests, levels of total cholesterol, LDL, HDL, VLDL and triglycerides, blood glucose, Lp-PLA2 and […] (PBMCs) were tested (see Table 4).
# (§4) Daily dosing began on Day 29, at which time each test animal was given a daily dose of 10 mg/kg SB-480848 (given as bolus equivalent in dog food). Animals were NPO from midnight the night before. Animals were euthanized on Day 196 and tissues harvested immediately.
# (§5) Brain tissue preparation. The entire brain was removed within one hour after animals were euthanized. The right hemisphere was fixed in 10% formalin for at least one week. […]
# glial cells = test: Glial cell (astrocyte) activation in brain of DM/HC pig model (GFAP IHC); details: DM/HC pigs treated with Lp-PLA2 inhibitor, vs non-treated
# Protocol: as §1, with “are: […]” for “are:”
# Two diabetic/hypercholesterolemic groups were evaluated: 1. […] In addition blood cholesterol levels were maintained between 300 and 800 mg/dl in experimental animals, this range having been determined to provide a better test model. Blood cholesterol levels were monitored in all animals on a bimonthly basis, as shown in Table 4 and adjustments were made to the fat content of the feed accordingly, as shown in Table 2. […]
# [1] = Body weight and behaviour observed during the study in DM/HC pig model; details: DM/HC pigs
# Protocol: as §1, §2, §3
# Domestic farm pigs, Yorkshire boars, ranging in weight between 25-35 kg were purchased from a local farm and placed in indoor housing under the care of a veterinarian. They were castrated 3-5 days in advance of the study start date. Test pigs were made diabetic by infusing one dose of streptozocin (125 mg/kg) IV in a period of 30 min. […] The blood glucose was measured using a glucometer every day before feeding for the first 14 days and then once a week. […]
# [2] = system: blood brain barrier (BBB); test: BBB leakage in brain of DM/HC pig model (IHC for pig immunoglobulin); details: DM/HC pigs
# Protocol: as §1, §2, §3, §4, §5
# [3] = 10 mg/kg/day SB-480848, n=6, vs DM/HC no treatment, 10 mg/kg/day
# [4] = 10 mg/kg/day SB-480848, vs DM/HC no treatment
# [5] = during the study period, compared to control non-treated animals
smiles,measurement,setting,value
"CCN(CC)CCN(Cc1ccc(-c2ccc(C(F)(F)F)cc2)cc1)C(=O)Cn1c(SCc2ccc(F)cc2)nc(=O)c2c1CCC2 [Lp-PLA2 inhibitor, 1-(N-(2-(diethylamino)ethyl)-N-(4-(4-trifluoromethylphenyl)benzyl)-aminocarbonylmethyl)-2-(4-fluorobenzyl)thio-5,6-trimethylenepyrimidin-4-one]",sick neurons,"Abeta-42; 10 mg/kg/day SB-480848, compared with non-treated animals",rarely observed
same,neuronal Abeta-42 immunoreactivity,Abeta-42; [3],prevents Abeta-42 accumulation in neurons; also recorded: no neuronal Abeta-42 immunoreactivity
same,Abeta42 accumulation in vascular SMCs,Abeta-42; [4],prevented Abeta42 accumulation in vascular SMCs
same,cerebrovascular amyloidosis (arterial Abeta-42 immunostaining),"Abeta-42; 10 mg/kg/day SB-480848, vs DM/HC no treatment, 10 mg/kg/day",little or no arterial Abeta-42 immunostaining; also recorded: minimized cerebrovascular amyloidosis
same,activation of glial cells,glial cells,less activation of glial cells
same,weight,"[1]; 10 mg/kg/day SB-480848, end of study, from a baseline of 26.9 kg, control animals 50.9 kg (baseline 30.3 kg)",62.5 kg
same,activity in the cage,[1]; [5],increased activity in the cage
same,response to feeding and handling,[1]; [5],tended to respond more alertly to feeding and handling
same,responsiveness to external stimuli,[1]; [5],more responsive to external stimuli
same,BBB leakage,[2]; [3],prevents BBB leakage; also recorded: negligible
same,Ig binding to neurons,[2]; [4],no Ig binding to neurons
same,Ig leakage from blood vessels,[2]; [4],no Ig leakage from blood vessels
same,dendrite collapse,[2]; [4],no dendrite collapse
